Calls of active or inactive are those of the source. The rule behind the calls is not given here.
Key:
Mus musculus [1] = assay: Neuroprotective activity in HdhQ140 mouse model assessed as rescue of motor deficiency by measuring crossing time at 5 mg/kg, iv QD for 4 weeks by balance beam test; format: functional, organism-based
[2] = Neurotoxicity in wild type mouse assessed as effect on motor deficiency by measuring crossing time at 5 mg/kg, iv QD for 4 weeks by balance beam test; format: toxicity, organism-based; settings: in vivo, 672 h
[3] = molecular target: G-protein coupled receptor 52 (Mus musculus) (UniProt P0C5J4); assay: In vivo antagonist activity at GPR52 in HdhQ140 knock-in mouse model assessed as reduction in soluble mHTT levels in striatum at 5 mg/kg, iv QD for 4 weeks by TR-FRET analysis; format: functional, organism-based
Chain of G-protein coupled receptor 52 (Mus musculus) (P0C5J4 whole entry): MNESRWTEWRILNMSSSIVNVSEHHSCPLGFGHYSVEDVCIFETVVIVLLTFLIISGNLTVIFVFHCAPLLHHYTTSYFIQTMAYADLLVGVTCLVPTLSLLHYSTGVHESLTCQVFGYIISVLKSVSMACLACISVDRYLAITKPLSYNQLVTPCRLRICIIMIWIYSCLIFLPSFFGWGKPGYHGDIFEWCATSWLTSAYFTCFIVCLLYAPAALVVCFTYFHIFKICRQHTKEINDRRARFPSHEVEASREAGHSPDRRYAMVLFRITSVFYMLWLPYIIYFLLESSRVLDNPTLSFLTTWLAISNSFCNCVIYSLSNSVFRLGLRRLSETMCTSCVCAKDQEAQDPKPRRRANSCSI

[4] = molecular target: G-protein coupled receptor 52 (Mus musculus) (UniProt P0C5J4); assay: In vivo antagonist activity at GPR52 in HdhQ140 knock-in mouse model assessed as reduction in soluble mHTT levels in cortex at 5 mg/kg, iv QD for 4 weeks by TR-FRET analysis; format: functional, organism-based
[5] = molecular target: G-protein coupled receptor 52 (Mus musculus) (UniProt P0C5J4); assay: In vivo antagonist activity at GPR52 in wild type mouse model assessed as reduction in soluble mHTT levels at 5 mg/kg, iv QD for 4 weeks by TR-FRET analysis; format: functional, organism-based
[6] = molecular target: G-protein coupled receptor 52 (Mus musculus) (UniProt P0C5J4); assay: In vivo antagonist activity at GPR52 in HdhQ140 knock-in mouse model assessed as reduction in mHTT aggregate levels in striatum in presence of 4C9 antibody labelled with terbium at 5 mg/kg, iv QD for 4 weeks by TR-FRET analysis; format: functional, organism-based
[7] = molecular target: G-protein coupled receptor 52 (Mus musculus) (UniProt P0C5J4); assay: In vivo antagonist activity at GPR52 in HdhQ140 knock-in mouse model assessed as reduction in mHTT aggregate levels in striatum in presence of 4C9 antibody labelled with D2 fluorophore at 5 mg/kg, iv QD for 4 weeks by TR-FRET analysis; format: functional, organism-based
[8] = molecular target: G-protein coupled receptor 52 (Mus musculus) (UniProt P0C5J4); assay: In vivo antagonist activity at GPR52 in HdhQ140 knock-in mouse model assessed as reduction in mHTT aggregate levels in cortex in presence of 4C9 antibody labelled with terbium at 5 mg/kg, iv QD for 4 weeks by TR-FRET analysis; format: functional, organism-based
[9] = molecular target: G-protein coupled receptor 52 (Mus musculus) (UniProt P0C5J4); assay: In vivo antagonist activity at GPR52 in HdhQ140 knock-in mouse model assessed as reduction in mHTT aggregate levels in cortex in presence of 4C9 antibody labelled with D2 fluorophore at 5 mg/kg, iv QD for 4 weeks by TR-FRET analysis; format: functional, organism-based
[10] = molecular target: G-protein coupled receptor 52 (Mus musculus) (UniProt P0C5J4); assay: In vivo antagonist activity at GPR52 in wild type mouse model assessed as reduction in mHTT aggregate levels in cortex in presence of 4C9 antibody labelled with terbium at 5 mg/kg, iv QD for 4 weeks by TR-FRET analysis; format: functional, organism-based
[11] = molecular target: G-protein coupled receptor 52 (Mus musculus) (UniProt P0C5J4); assay: In vivo antagonist activity at GPR52 in wild type mouse model assessed as reduction in mHTT aggregate levels in cortex in presence of 4C9 antibody labelled with D2 fluorophore at 5 mg/kg, iv QD for 4 weeks by TR-FRET analysis; format: functional, organism-based
[12] = molecular target: G-protein coupled receptor 52 (Mus musculus) (UniProt P0C5J4); assay: In vivo antagonist activity at GPR52 in wild type mouse model assessed as reduction in mHTT aggregate levels in striatum in presence of 4C9 antibody labelled with terbium at 5 mg/kg, iv QD for 4 weeks by TR-FRET analysis; format: functional, organism-based
[13] = molecular target: G-protein coupled receptor 52 (Mus musculus) (UniProt P0C5J4); assay: In vivo antagonist activity at GPR52 in wild type mouse model assessed as reduction in mHTT aggregate levels in striatum in presence of 4C9 antibody labelled with D2 fluorophore at 5 mg/kg, iv QD for 4 weeks by TR-FRET analysis; format: functional, organism-based
Mus musculus [14] = assay: Neuroprotective activity in HdhQ140 knock-in mouse model assessed as rescue of mHTT-induced neuronal survival loss at 5 mg/kg, iv QD for 4 weeks by […] based immunostaining based analysis; format: functional, organism-based
[15] = Cytotoxicity against mouse STHdhQ7/111 cells assessed as cell viability at < 10 uM incubated for 48 hrs by cell titer glo luminescence based assay; settings: sthdhq7/111, 48 h
[16] = molecular target: Beta-2 adrenergic receptor (Homo sapiens) (UniProt P07550); assay: Antagonist activity at beta2 adrenergic receptor (unknown origin) expressed in HEK293 cells assessed as inhibition of isoproterenol-induced cAMP accumulation; format: functional, cell-based
Chain of Beta-2 adrenergic receptor (Homo sapiens) (P07550 whole entry, looked up): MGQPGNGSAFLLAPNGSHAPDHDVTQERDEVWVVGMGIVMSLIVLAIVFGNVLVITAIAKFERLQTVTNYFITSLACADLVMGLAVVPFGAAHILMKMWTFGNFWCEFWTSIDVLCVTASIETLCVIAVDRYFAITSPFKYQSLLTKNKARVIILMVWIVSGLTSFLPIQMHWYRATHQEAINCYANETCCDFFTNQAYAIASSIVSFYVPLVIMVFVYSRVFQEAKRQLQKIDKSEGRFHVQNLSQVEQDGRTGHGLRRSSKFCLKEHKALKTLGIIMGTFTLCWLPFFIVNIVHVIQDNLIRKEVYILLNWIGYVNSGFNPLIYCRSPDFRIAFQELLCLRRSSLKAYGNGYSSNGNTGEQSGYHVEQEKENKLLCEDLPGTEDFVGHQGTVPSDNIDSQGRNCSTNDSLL

[17] = molecular target: Glucagon receptor (Homo sapiens) (UniProt P47871); assay: Antagonist activity at GCGR (unknown origin) expressed in HEK293 cells assessed as inhibition of glucagon-induced cAMP accumulation; format: functional, cell-based
Chain of Glucagon receptor (Homo sapiens) (P47871 whole entry): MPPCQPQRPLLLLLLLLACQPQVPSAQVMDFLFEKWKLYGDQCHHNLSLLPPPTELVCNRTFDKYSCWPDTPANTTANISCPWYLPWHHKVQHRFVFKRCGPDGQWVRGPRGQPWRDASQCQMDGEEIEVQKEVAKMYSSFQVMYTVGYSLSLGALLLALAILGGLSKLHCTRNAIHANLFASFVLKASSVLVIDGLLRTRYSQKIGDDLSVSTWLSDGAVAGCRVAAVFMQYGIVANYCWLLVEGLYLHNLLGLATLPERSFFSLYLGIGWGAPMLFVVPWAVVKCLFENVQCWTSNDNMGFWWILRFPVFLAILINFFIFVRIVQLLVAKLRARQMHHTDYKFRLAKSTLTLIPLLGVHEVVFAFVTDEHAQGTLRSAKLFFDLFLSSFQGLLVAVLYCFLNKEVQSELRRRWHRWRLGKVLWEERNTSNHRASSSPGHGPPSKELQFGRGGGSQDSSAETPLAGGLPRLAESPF

[18] = molecular target: Glucagon-like peptide 1 receptor (Homo sapiens) (UniProt P43220); assay: Antagonist activity at GLP-1R (unknown origin) expressed in HEK293 cells assessed as inhibition of GLP1-induced cAMP accumulation; format: functional, cell-based
Chain of Glucagon-like peptide 1 receptor (Homo sapiens) (P43220 whole entry): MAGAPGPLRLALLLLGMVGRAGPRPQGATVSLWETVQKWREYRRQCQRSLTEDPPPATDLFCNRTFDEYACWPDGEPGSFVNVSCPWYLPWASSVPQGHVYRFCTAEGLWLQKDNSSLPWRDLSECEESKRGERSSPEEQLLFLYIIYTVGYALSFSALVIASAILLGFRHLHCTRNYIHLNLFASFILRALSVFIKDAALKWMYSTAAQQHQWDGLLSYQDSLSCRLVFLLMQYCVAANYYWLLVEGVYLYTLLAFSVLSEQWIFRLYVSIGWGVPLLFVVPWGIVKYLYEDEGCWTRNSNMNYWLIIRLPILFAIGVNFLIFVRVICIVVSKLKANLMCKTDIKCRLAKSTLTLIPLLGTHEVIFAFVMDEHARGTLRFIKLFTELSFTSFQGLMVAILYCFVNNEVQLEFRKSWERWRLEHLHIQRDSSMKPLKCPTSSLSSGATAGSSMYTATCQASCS

[19] = molecular target: C-C chemokine receptor type 5 (Homo sapiens) (UniProt P51681); assay: Antagonist activity at CCR5 (unknown origin) expressed in HEK293 cells assessed as inhibition of […] cAMP accumulation; format: functional, cell-based
Chain of C-C chemokine receptor type 5 (Homo sapiens) (P51681 whole entry, looked up): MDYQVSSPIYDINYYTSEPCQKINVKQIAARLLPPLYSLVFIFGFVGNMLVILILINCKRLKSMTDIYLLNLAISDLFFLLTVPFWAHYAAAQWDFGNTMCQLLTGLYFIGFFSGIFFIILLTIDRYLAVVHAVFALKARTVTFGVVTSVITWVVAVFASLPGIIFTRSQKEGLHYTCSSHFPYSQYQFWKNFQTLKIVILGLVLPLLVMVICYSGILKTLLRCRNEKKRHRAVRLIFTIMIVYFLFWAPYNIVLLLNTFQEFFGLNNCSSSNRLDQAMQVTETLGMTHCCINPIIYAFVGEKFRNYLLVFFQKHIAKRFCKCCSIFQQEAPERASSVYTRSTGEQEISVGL

[20] = molecular target: T1, Alpha-1D adrenergic receptor (Homo sapiens) (UniProt P25100); assay: Antagonist activity at alpha1D adrenergic receptor (unknown origin) expressed in HEK293 cells assessed as inhibition of phenylephrine-induced cAMP accumulation; format: functional, cell-based
T1 sequence (whole entry): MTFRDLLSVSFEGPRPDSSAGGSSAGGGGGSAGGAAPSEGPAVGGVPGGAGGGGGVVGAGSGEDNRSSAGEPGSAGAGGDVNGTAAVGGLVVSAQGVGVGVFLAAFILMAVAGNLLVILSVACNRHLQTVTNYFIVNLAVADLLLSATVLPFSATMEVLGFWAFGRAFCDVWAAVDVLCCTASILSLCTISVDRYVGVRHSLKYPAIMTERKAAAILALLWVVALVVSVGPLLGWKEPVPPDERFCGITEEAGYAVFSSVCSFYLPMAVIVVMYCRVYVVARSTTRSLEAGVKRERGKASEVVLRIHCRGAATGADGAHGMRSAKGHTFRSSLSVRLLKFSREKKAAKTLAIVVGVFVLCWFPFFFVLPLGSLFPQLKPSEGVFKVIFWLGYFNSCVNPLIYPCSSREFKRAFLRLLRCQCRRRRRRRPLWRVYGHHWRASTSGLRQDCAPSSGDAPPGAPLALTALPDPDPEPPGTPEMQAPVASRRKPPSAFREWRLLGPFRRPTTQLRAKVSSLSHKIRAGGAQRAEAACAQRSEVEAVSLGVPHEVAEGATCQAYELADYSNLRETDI

[21] = molecular target: D(2) dopamine receptor (Homo sapiens) (UniProt P14416); assay: Antagonist activity at dopamine D2 receptor (unknown origin) expressed in HEK293 cells assessed as inhibition of dopamine-induced cAMP accumulation; format: functional, cell-based
Chain of D(2) dopamine receptor (Homo sapiens) (P14416 whole entry): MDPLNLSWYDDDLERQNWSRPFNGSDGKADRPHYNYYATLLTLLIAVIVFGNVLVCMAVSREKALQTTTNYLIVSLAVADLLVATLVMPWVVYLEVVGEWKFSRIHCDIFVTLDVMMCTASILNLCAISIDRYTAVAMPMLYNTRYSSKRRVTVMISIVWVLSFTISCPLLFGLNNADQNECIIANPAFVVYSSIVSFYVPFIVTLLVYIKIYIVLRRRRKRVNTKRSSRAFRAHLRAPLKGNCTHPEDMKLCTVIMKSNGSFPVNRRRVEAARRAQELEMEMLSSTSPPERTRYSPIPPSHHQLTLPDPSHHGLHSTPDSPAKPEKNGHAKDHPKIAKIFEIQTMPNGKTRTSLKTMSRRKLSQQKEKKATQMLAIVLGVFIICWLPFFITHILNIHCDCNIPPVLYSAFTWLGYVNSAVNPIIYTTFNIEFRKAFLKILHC

In the case of `O=C(/C=C/CCc1ccccc1)c1ccco1`, the Activity (Mus musculus [1]) is reported as “Active”, the Activity [2] is reported as “Non-Toxic” and the Activity [3] is reported as “Active”. For the same compound, the Activity [4] was “inactive”, the Activity [5] was “inactive” and the Activity [6] was “Active”. For the same compound, the Activity [7] was “Active”, the Activity [8] was “inactive” and the Activity [9] was “inactive”. The Activity [10] was “inactive”, the Activity [11] was “inactive” and the Activity [12] was “inactive”. The Activity [13] was “inactive”, the Activity (Mus musculus [14]) was “Active” and the Activity [15] was “Non-Toxic”. The Activity [16] was “inactive”, the Activity [17] was “inactive” and the Activity [18] was “inactive”. For the same compound, the Activity [19] was “inactive”, the Activity [20] was “inactive” and the Activity [21] was “inactive”.

From ChEMBL document CHEMBL4706623, “GPR52 Antagonist Reduces Huntingtin Levels and Ameliorates Huntington's Disease-Related Phenotypes” (J Med Chem, 2021)
